Paper PMC5441580, “GPR40 partial agonist MK-2305 lower fasting glucose in the Goto Kakizaki rat via suppression of endogenous glucose production” (PLoS ONE, 2017)
Where “and” joins values, the source holds several entries; their conditions need not be identical. Identical values can stand only once.

How the values were obtained:
Rat PPARα = molecular target: T1, Rat PPARα (Rattus norvegicus, UniProt P37230); test: cell-based nuclear receptor profiling (Indigo Biosciences), PPARα
T1 sequence (P37230 1-468): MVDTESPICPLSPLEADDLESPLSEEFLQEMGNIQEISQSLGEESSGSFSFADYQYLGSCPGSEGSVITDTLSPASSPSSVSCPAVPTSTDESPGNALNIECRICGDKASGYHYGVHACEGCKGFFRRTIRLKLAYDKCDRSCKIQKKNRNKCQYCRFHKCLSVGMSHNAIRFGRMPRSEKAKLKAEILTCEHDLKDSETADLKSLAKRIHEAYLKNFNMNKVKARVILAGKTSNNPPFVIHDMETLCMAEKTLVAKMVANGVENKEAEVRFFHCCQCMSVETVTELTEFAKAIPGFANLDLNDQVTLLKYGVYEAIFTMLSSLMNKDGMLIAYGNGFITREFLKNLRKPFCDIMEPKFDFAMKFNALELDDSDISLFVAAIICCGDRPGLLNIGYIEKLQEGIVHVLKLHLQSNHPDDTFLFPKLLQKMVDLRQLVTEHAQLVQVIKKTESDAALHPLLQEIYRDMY
Description: Rat PPARα, PPARδ, and PPARγ activities were determined by Indigo Biosciences (State College, PA) cell-based nuclear receptor profiling service.

GK rats = test: GK rat chronic efficacy, compound in feed for 20 days; format: in vivo; settings: for % HBA1c / Liver Triglycerides: following 20 days of treatment in the GK rat; for % HBA1c / Liver Triglycerides / Fasted blood glucose / Fasted plasma insulin: individual animals
Description: At the start of the study, fed glucose was measured at 8 A.M., and animals were selected and sorted into treatment groups based on ambient glucose (n = 10/male GK group, n = 6/male WKY control group). […] Fed blood glucose, food intake, and body weights were determined on days 0, 1, 3, 7, and 14 of study at 8 A.M. On days 7 and 14, food was removed for 5 h and plasma glucose was measured. Percent inhibitions were calculated as the percent reduction of blood glucose from the average value for vehicle controls. On day 14, blood was collected from the tail vein (20 μl) after the morning glucose measurement and after 5 h fast from a subset of n = 3 rats per treatment group to determine the ambient and fasted exposure of the compounds in circulation. The blood was stored at 4°C in 0.1 M sodium monocitrate for subsequent analysis. Animals were then re-fed their respective diet treatments. On day 20 of treatment at 8 A.M., blood glucose was measured and then animals were euthanized via CO2 asphyxiation. Blood and liver tissue were sampled, processed, and stored at -80°C until analysis.
Plasma was analyzed for triglycerides, NEFA, and HbA1C using a P Modular Roche Clinical Chemistry analyzer. Liver triglycerides were extracted as described by Bligh and Dyer, and were measured using the Infinity triglyceride assay kit (Thermo Scientific, Rockford, IL). Plasma insulin levels were measured via EIA (Mesoscale Discovery ELISA Kit, Gaithersburg MD).

[1] = tested on: perfused db/db mouse livers; test: isolated perfused liver study, 13C NMR, [2-13C] pyruvate
Description: To evaluate whether GPR40 partial agonist treatment produced a direct effect on hepatic glucose production, we performed isolated perfused liver studies with ^13C NMR spectroscopy in which GPR40 agonists were dosed directly to the liver ex vivo. Mouse livers were chosen instead of rat livers due to size restrictions of the perfused liver apparatus. […] A detailed description of the perfused liver technique can be found elsewhere. Briefly, db/db mice were anesthetized (Nembutal IP, 100 mg/kg), the portal vein was cannulated and tied off, and the liver was excised and perfused with a pre-oxygenated Krebs-bicarbonate buffered solution. The liver was then placed into a 20 mm NMR tube and the gluconeogenic substrate [2-^13C] pyruvate (10 mM) was added to the perfusate plus either MK-2305 (10 μM) or vehicle (0.1% DMSO). […] These NMR signals were then converted to absolute units (μmoles) by comparison to ^13C NMR spectra of standard solutions acquired under identical conditions. Additional correction factors were included for ^13C-glycogen and ^13C-glucose to account for the fact that position 2 in pyruvate can end up at position 1, 2, 5, or 6 in glucose/glycogen due to the fumarase and triose phosphate isomerase reactions. The slope of each signal versus time was then used to calculate the following fluxes: glucose production, glycogen synthesis, and lactate production.

[2] = perfused db/db mouse livers, 10 mg/kg, title: 10 M, individual livers

Compound: O=C1NC(=O)C(C2CCOc3cc(Oc4ccc(C(F)(F)F)cc4Cl)ccc32)S1 (stereo not shown) [MK-2305]
- EC50 (Rat PPARα): > 10 µM
- % Activation (Rat PPARα; @ 10 μM): -0.2 @ 10 μM % and -0.24%
- % Effect (Rat PPARα; Dose 0.309 nM): -0.03%
- % Effect (Rat PPARα; Dose 0.981 nM): -0.05%
- % Effect (Rat PPARα; Dose 3.11 nM): -0.11%
- % Effect (Rat PPARα; Dose 9.85 nM): -0.1%
- % Effect (Rat PPARα; Dose 31.2 nM): -0.09%
- % Effect (Rat PPARα; Dose 99 nM): -0.06%
- % Effect (Rat PPARα; Dose 314 nM): -0.09%
- % Effect (Rat PPARα; Dose 995 nM): -0.13%
- % Effect (Rat PPARα; Dose 3155 nM): -0.18%
- % Effect (Rat PPARα; Dose 10000 nM): -0.24%
- effect on body weight (GK rats; 10 mg/kg in feed, GK rats): no significant effect
- effect on food intake (GK rats; 10 mg/kg in feed, GK rats): no significant effect
- effect on food intake (GK rats; 30 mg/kg in feed, GK rats, p < 0.05): reduction in food intake that persisted through day 14
- effect on body weight (GK rats; 30 mg/kg in feed, GK rats, relative to vehicle controls): did not correspond to changes in body weight
- % HBA1c (GK rats; 10 mpk): 4.3% and 4.6% and 4.2% and 4.4% and 4.5%
- Liver Triglycerides (GK rats; 10 mpk): 19.1 mg/g tissue and 21.7 mg/g tissue and 24.5 mg/g tissue and 22.1 mg/g tissue and 24.7 mg/g tissue and 26.9 mg/g tissue and 25.8 mg/g tissue and 22.8 mg/g tissue
- Morning (fed) Blood Glucose (GK rats; 30 mpk in feed, Day 0 (start of study), individual GK rats): 189 mg/dL and 176 mg/dL and 238 mg/dL and 199 mg/dL and 183 mg/dL and 212 mg/dL and 192 mg/dL and 274 mg/dL and 228 mg/dL
- Morning (fed) Blood Glucose (GK rats; 30 mpk in feed, Day 1, individual GK rats): 147 mg/dL and 165 mg/dL and 223 mg/dL and 161 mg/dL and 155 mg/dL and 192 mg/dL and 153 mg/dL and 302 mg/dL and 159 mg/dL
- Morning (fed) Blood Glucose (GK rats; 30 mpk in feed, Day 3, individual GK rats): 139 mg/dL and 153 mg/dL and 156 mg/dL and 150 mg/dL and 169 mg/dL and 149 mg/dL and 154 mg/dL and 218 mg/dL and 134 mg/dL
- Morning (fed) Blood Glucose (GK rats; 30 mpk in feed, Day 7, individual GK rats): 139 mg/dL and 153 mg/dL and 126 mg/dL and 142 mg/dL and 151 mg/dL and 181 mg/dL and 197 mg/dL and 140 mg/dL
- Morning (fed) Blood Glucose (GK rats; 30 mpk in feed, Day 14, individual GK rats): 141 mg/dL and 143 mg/dL and 156 mg/dL and 133 mg/dL and 132 mg/dL and 146 mg/dL and 147 mg/dL
- Morning (fed) Blood Glucose (GK rats; 30 mpk in feed, Day 20, individual GK rats): 128 mg/dL and 137 mg/dL and 159 mg/dL and 133 mg/dL and 139 mg/dL and 122 mg/dL and 126 mg/dL and 115 mg/dL and 142 mg/dL
- % HBA1c (GK rats; 30 mpk): 4.4% and 4.5% and 4.3%
- Liver Triglycerides (GK rats; 30 mpk): 16.7 mg/g tissue and 23.9 mg/g tissue and 28.2 mg/g tissue and 27.1 mg/g tissue and 24.5 mg/g tissue and 23 mg/g tissue and 24.3 mg/g tissue
- Fasted blood glucose (GK rats; Day 7, ~6 hrs after food removal, 30mpk, chronic study, 30 mg/kg): 110 mg/dl (2×) and 125 mg/dl and 135 mg/dl and 103 mg/dl and 141 mg/dl and 118 mg/dl (2×) and 114 mg/dl
- Fasted plasma insulin (GK rats; Day 7, 10mpk, 10 mg/kg): 405.2 pg/mL and 91.1 pg/mL and 88.1 pg/mL and 159.3 pg/mL and 284.1 pg/mL and 97.1 pg/mL and 80.9 pg/mL and 605.6 pg/mL and 106.3 pg/mL
- Fasted plasma insulin (GK rats; Day 7, 30mpk, 30 mg/kg): 199.5 pg/mL and 58.7 pg/mL and 102.1 pg/mL and 88.8 pg/mL and 104.2 pg/mL and 182.8 pg/mL and 66.3 pg/mL and 259.0 pg/mL and 51.6 pg/mL
- Fasted plasma insulin (GK rats; Day 14, 10mpk, 10 mg/kg): 66.8 pg/mL and 405.9 pg/mL and 135.1 pg/mL and 49.4 pg/mL and 1589.0 pg/mL and 353.3 pg/mL and 247.1 pg/mL and 127.3 pg/mL and 158.9 pg/mL
- Fasted plasma insulin (GK rats; Day 14, 30mpk, 30 mg/kg): 80.8 pg/mL and 3482.1 pg/mL and 77.9 pg/mL and 794.5 pg/mL and 102.8 pg/mL and 430.5 pg/mL and 972.9 pg/mL and 1169.4 pg/mL and 1639.6 pg/mL
- NEFA (mEq/L) (GK rats; MK2305 @ 10, 20 days of treatment, individual GK rats): 0.23 mEq/L and 0.33 mEq/L and 0.26 mEq/L and 0.5 mEq/L and 0.19 mEq/L and 0.37 mEq/L and 0.32 mEq/L
- NEFA (mEq/L) (GK rats; MK2305 @ 30, 20 days of treatment, individual GK rats): 0.21 mEq/L and 0.43 mEq/L and 0.24 mEq/L and 0.45 mEq/L and 0.39 mEq/L and 0.38 mEq/L and 0.22 mEq/L and 0.34 mEq/L
- Morning (fed) Blood Glucose (GK rats; MK-2305 10 mpk in feed, Day 0 (start of study), individual GK rats, 10 mg/kg): 184 mg/dL and 260 mg/dL and 210 mg/dL and 227 mg/dL and 237 mg/dL and 193 mg/dL and 200 mg/dL and 191 mg/dL and 179 mg/dL
- Morning (fed) Blood Glucose (GK rats; MK-2305 10 mpk in feed, Day 1, individual GK rats, 10 mg/kg): 170 mg/dL and 247 mg/dL and 203 mg/dL and 186 mg/dL and 231 mg/dL and 179 mg/dL and 277 mg/dL and 199 mg/dL and 162 mg/dL
- Morning (fed) Blood Glucose (GK rats; MK-2305 10 mpk in feed, Day 3, individual GK rats, 10 mg/kg): 158 mg/dL and 166 mg/dL and 183 mg/dL and 172 mg/dL and 163 mg/dL and 169 mg/dL and 170 mg/dL and 167 mg/dL
- Morning (fed) Blood Glucose (GK rats; MK-2305 10 mpk in feed, Day 7, individual GK rats, 10 mg/kg): 150 mg/dL and 185 mg/dL and 138 mg/dL and 158 mg/dL and 179 mg/dL and 152 mg/dL and 224 mg/dL and 161 mg/dL
- Morning (fed) Blood Glucose (GK rats; MK-2305 10 mpk in feed, Day 14, individual GK rats, 10 mg/kg): 146 mg/dL and 143 mg/dL and 176 mg/dL and 141 mg/dL and 140 mg/dL and 169 mg/dL and 230 mg/dL
- Morning (fed) Blood Glucose (GK rats; MK-2305 10 mpk in feed, Day 20, individual GK rats, 10 mg/kg): 146 mg/dL and 140 mg/dL and 150 mg/dL and 149 mg/dL and 138 mg/dL and 145 mg/dL and 163 mg/dL and 120 mg/dL
- decrease in fed glucose vs. vehicle (GK rats; day 3, 10 mg/kg in feed, GK rats, p < 0.05): 22%
- decrease in fed glucose vs. vehicle (GK rats; day 3, 30 mg/kg in feed, GK rats, p < 0.05): 27%
- reduction in fasting blood glucose vs. vehicle (GK rats; day 7, 5 hr fast, 10 mg/kg in feed, GK rats): 19%
- reduction in fasting blood glucose vs. vehicle (GK rats; day 7, 5 hr fast, 30 mg/kg in feed, GK rats): 19%
- reduction in fasting blood glucose vs. vehicle (GK rats; day 14, 5 hr fast, 10 mg/kg in feed, GK rats): 26%
- reduction in fasting blood glucose vs. vehicle (GK rats; day 14, 5 hr fast, 30 mg/kg in feed, GK rats): 30%
- effect on circulating HbA1C levels (GK rats; day 20, GK rats, all treatment groups): significantly reduced
- effect on liver triglyceride levels (GK rats; day 20, GK rats, vs. vehicle controls): no effect
- effect on plasma non-esterified fatty acid (NEFA) levels (GK rats; day 20, either dose (10, 30 mg/kg), GK rats): no effect
- effect on fasted plasma insulin (GK rats; days 7 and 14, 5 hr fast, GK rats): no significant effects
- Fasted blood glucose (GK rats; second block of the table (day 14 per title), 10mpk, 10 mg/kg): 151 mg/dL and 95 mg/dL and 111 mg/dL and 128 mg/dL and 118 mg/dL and 120 mg/dL and 116 mg/dL and 138 mg/dL and 117 mg/dL
- Fasted blood glucose (GK rats; second block of the table (day 14 per title), 30mpk, 30 mg/kg): 112 mg/dl and 113 mg/dl and 108 mg/dl and 115 mg/dl (2×) and 126 mg/dl and 105 mg/dl and 123 mg/dl and 119 mg/dl
- effect on conversion of [2-13C] pyruvate to 13C-glucose, 13C-glycogen, or 13C-lactate ([1]; 10 μM, perfused db/db mouse liver): no effects
- Flux, conversion of [2-13C] pyruvate to 13C-glycogen [1, 2]: 0.1121 umoles pyr /g liver*min and 0.1693 umoles pyr /g liver*min and 0.0485 umoles pyr /g liver*min and 0.07554 umoles pyr /g liver*min
- Flux, conversion of [2-13C] pyruvate to 13C-lactate [1, 2]: 1.604 umoles pyr /g liver*min and 1.499 umoles pyr /g liver*min and 1.317 umoles pyr /g liver*min and 0.5832 umoles pyr /g liver*min
- Flux, conversion of [2-13C] pyruvate to 13C-glucose ([1]; perfused db/db mouse livers, MK-2305 10 μM in perfusate, individual livers): 0.9558 umoles pyr /g liver*min and 1.314 umoles pyr /g liver*min and 1.287 umoles pyr /g liver*min and 0.8408 umoles pyr /g liver*min
